From US8715718B2, “Extracellular matrix production from nanoscale substrate” (Rutgers, The State University of New Jersey, priority 2006, dated 2014)

Tests used:
[1] = tested on: Human foreskin fibroblasts; assay: Imaging of fibronectin matrix assembly as a function of carrier size and ligand density; type: cell-based; conditions: serum-free, 24 hours
Experimental: Substrates with equal levels of ligand but differential presentation were adsorbed in 8-well Labtek chamber slides overnight at 4° C. Substrates were then washed generously with PBS and blocked with BSA for 1 hour at 37° C. Fibroblasts were serum-starved at least 12 hours prior to trypsinization and re-plated at a density of 35,000 cells per well in serum free media. Cells were then cultured for 24 hours at 37° C. After 24 hour incubation, media was removed and substrates were washed with DPBS with calcium and magnesium. Cells were fixed with 1% formaldehyde for 9 minutes and washed with DPBS with calcium and magnesium. Cells were permeabilized with Triton-X 100 for 15 minutes and washed with DPBS with calcium and magnesium and blocked with 1% BSA for 1 hour at 37° C. Substrates were washed and primary antibody IST-4 (Sigma) for fibronectin that binds to the 5th type III repeat of human plasma fibronectin was incubated at a 1:100 dilution in PBS overnight at 4° C. Substrates were washed and incubated with FITC-conjugated donkey anti-mouse IgG (Jackson Immunolabs, West Grove, Pa.) at a 1:200 dilution for 30 minutes at room temperature, and were then washed and incubated with Texas-red phalloidin (Molecular Probes, Eugene, Oreg.) for 20 minutes at room temperature. Substrates were washed and stored at 4° C. until image acquisition. […]

fibroblasts [2] = assay: Cell morphology on ligand-ANC (FITC-phalloidin); type: cell-based, human
Experimental: Cell morphology was examined as a function of differential ligand presentation and nanocarrier size at two time points. Passively adsorbed substrates were prepared as described above. Fibroblasts that were serum deprived at least 12 hours before hand were seeded in serum free media for 1 or 5 hours at 37° C. Substrates were washed after the designated incubation time, and fixed with 3.7% formaldehyde for 15 minutes at room temperature. Substrates were washed again and permeabilized with Triton-X 100 for 15 minutes at room temperature. Substrates were washed, blocked with 1% BSA for 15 minutes at room temperature, washed again, and stained with FITC phalloidin (Molecular Probes) for 20 minutes. Substrates were washed and stored at 4° C. until image acquisition. Images were acquired with a Leica TCS SP/2 at 63×.
The effects of ligand presentation on cytoskeletal morphology were examined by labeling F-actin at two different time points (FIG. 7b). In that experiment, cell morphology was examined of fibroblasts cultured at the optimal ligand density for cell attachment (2.2 μg/cm^2) at 1 hour (left column) and 5 hours (right column) using FITC-phalloidin.

[3] = tested on: Human foreskin fibroblasts, HFF; assay: Fibronectin matrix assembly by HFF, immunofluorescence and image analysis; type: cell-based
Experimental: (§1) Labtek chamber slides (Nalge Nunc International, Rochester, N.Y.) were coated overnight at 4° C. with FNf-ANPs or FNf as described above to attain equivalent display with FNf. […] Fibroblasts were seeded at densities and incubated for times described in each figure legend. […] Samples were then incubated with primary antibodies in blocking buffer (3% BSA) for 1 hour, washed, and further incubated with the appropriate secondary antibodies for 1 hour. Where indicated, cells were also incubated with TexasRed X- or fluoroscein-conjugated phalloidin to visualize F-actin. Cells were examined using a Leica SP/2 Confocal Laser Scanning Microscope.

[4] = tested on: Human foreskin fibroblasts, HFF; assay: Cell morphology by F-actin staining and shape factor; type: cell-based
Experimental: as §1
To characterize the effect of nanoparticle display of FNf on early cellular responses, adhesion and morphology were examined. […] Next, we extended the culture time of human foreskin fibroblasts (“HFF”) on FNf-ANPs or equivalent FNf, and evaluated cellular morphology. HFF (2.3×10^4 cells/cm^2) were cultured for 5 hours on surfaces prepared as described in Materials and Methods, then stained for F-actin with Texas Red X-conjugated phalloidin. Bar, 40 μm.
(§2) To analyze cellular morphology, shape factors were quantified for all conditions.

[5] = tested on: Human foreskin fibroblasts, HFF; assay: Cell adhesion assay (hexosaminidase); type: cell-based
Experimental: To quantify cell attachment to FNf-ANPs, 96-well non-tissue culture dishes were coated overnight at 4° C. with FNf-ANPs or FNf as described above. Wells were washed with PBS and blocked with 1% bovine serum albumin. After washing with PBS, HFF were plated at 2.5×10^4 cells/well and incubated for 60 minutes at 37° C. Medium and unbound cells were removed by inversion of the plate and two washes with PBS. Quantification of the number of adherent cells was performed using the hexosaminidase assay. Briefly, substrate composed of a 1:1 mixture of 0.5% Triton-X 100 and 7.5 mM β-nitrophenyl N-acetyl β-D glucosaminide in 0.1 M citrate buffer, pH 5.0, was added to each well and incubated for 90 minutes at 37° C. The reaction was terminated with 50 mM glycine/5 mM EDTA, pH 10.4 and the absorbance read at 405 nm on a multiwell plate reader.
as §2

fibroblasts [6] = assay: Cell attachment to ligand-ANC (hexosaminidase assay); type: cell-based, human; conditions: 1 hour, equal ligand density, differential presentation
Experimental: To quantify cell attachment to ligand-ANC, 96-well non-tissue culture dishes were passively coated overnight at 4° C. with varying ligand density and presentation as described above. Wells were washed with PBS and blocked with 1% bovine serum albumin. After washing, fibroblasts were seeded at 25,000 cells/well and incubated for 1 hour at 37° C. Substrates were washed with PBS to remove unbound cells. Adhered cells were quantified using the hexosaminidase assay. Briefly, a substrate mixture composed of 1 part […] and 1 part 7.5 mM [3-nitrophenyl N-acetyl [3-D glucosaminide (Sigma) in 0.1 M citrate buffer (pH 5.0), was added to each well and incubated for 90 minutes at 37° C. The reaction was terminated with a mixture of 50 mM glycine (Sigma) and 5 mM EDTA (Sigma) (pH 10.4). The absorbance was read at 405 nm on a multiwell plate reader.
Cell attachment is one of the earliest cell anchorage responses to substrates. To examine if the nanoscale presentation of ligand could alter early cell binding and attachment events, fibroblasts were seeded on ligand-adsorbed substrates of three different ligand densities with different presentations (FIG. 7a). […] Cells were incubated for 1 hour, unbound cells were washed, and the number of adherent cells was quantified using the hexosaminidase assay. […]

whole length mouse fibronectin: whole length mouse fibronectin (Innovative Research) adsorbed as control substrate
fibronectin fibrils on control substrates [1]: Fibrils were not seen
cell spreading / morphology on control substrates (fibroblasts [2]; control substrates): polarized morphology consistent with migrating cells

C[C@@H](N)[C@H]1CC[C@H](C(=O)Nc2ccncc2)CC1 [Y27632]
effect on FNf-ANP induced matrix assembly by HFF ([3]; 3 μM Y27632 added 2 hours after seeding on FNf-ANP 1.70 μg/cm^2, overnight): abrogated
fibronectin matrix fibrils in the extracellular space compared to control conditions ([3]; HFF on FNf-ANP treated with Y27632, image analysis): significantly decreased levels

FNf: recombinant GST fusion of fibronectin fragment comprising repeats III9 and III10, adsorbed alone as comparator
cell spreading (morphology) ([4]; 45 minutes post seeding): minimally spread
cell morphology ([4]; 5 hours of culture, F-actin staining): flattened, well-spread appearance
shape factor, (perimeter)^2/(4π(area)) ([4]; 5 hours, about 25 cells per condition, all FNf densities): around 4
cell attachment ([5]; 60 minutes, lowest amount of ligand tested): no detectable attachment
cellular adhesion over the FNf concentration range ([5]; adsorbed FNf up to the highest concentration): no significant increase in cellular adhesion
deposition of fibronectin into the ECM when presented via the culture medium ([3]; HFF on bare coverglass, ligand added to media, overnight): not sufficient
cell attachment at a specific ligand density (fibroblasts [6]): significant attachment, but to a lesser degree
cell spreading / morphology at 1 hour (fibroblasts [2]; 2.2 μg/cm^2, 1 hour): some filopodial projections
cell morphology at 5 hours (fibroblasts [2]; 2.2 μg/cm^2, 5 hours): well-spread with well defined stress fibers
